Results reported in the NIST ThermoML archive (doi:10.1016/j.fluid.2015.12.029).

Key:
[1] = Liquid; for mass density: 298.15 K, 101.33 kPa, Vibrating tube method; for vapor or sublimation pressure: Ebulliometric method (Recirculating still)
[2] = Boiling temperature at pressure P; details: Liquid, Ebulliometric method (Recirculating still)

CO [methanol]
Details | mass density [kg/m3]
[1] | 786.56

Details | Boiling temperature at pressure P [°C] | vapor or sublimation pressure [kPa]
[1], 315.49 K | – | 40
[1], 321.98 K | – | 53.33
[1], 327.23 K | – | 66.66
[1], 331.66 K | – | 79.99
[1], 335.51 K | – | 93.32
[1], 337.6 K | – | 101.3
[2], 40 kPa | 42.34 | –
[2], 53.33 kPa | 48.83 | –
[2], 66.66 kPa | 54.08 | –
[2], 79.99 kPa | 58.51 | –
[2], 93.32 kPa | 62.36 | –
[2], 101.3 kPa | 64.5 | –

COC(C)=O [methyl ethanoate]
Details | mass density [kg/m3]
[1] | 927.1

Details | Boiling temperature at pressure P [°C] | vapor or sublimation pressure [kPa]
[1], 305.65 K | – | 40
[1], 312.68 K | – | 53.33
[1], 318.45 K | – | 66.66
[1], 323.36 K | – | 79.99
[1], 327.68 K | – | 93.32
[1], 330.04 K | – | 101.3
[2], 40 kPa | 32.50 | –
[2], 53.33 kPa | 39.53 | –
[2], 66.66 kPa | 45.30 | –
[2], 79.99 kPa | 50.21 | –
[2], 93.32 kPa | 54.53 | –
[2], 101.3 kPa | 56.89 | –

CCOC(=O)C(C)O (racemic) [DL-ethyl lactate]
Details | mass density [kg/m3]
[1] | 1028.08

Details | Boiling temperature at pressure P [°C] | vapor or sublimation pressure [kPa]
[1], 396.91 K | – | 40
[1], 405.49 K | – | 53.33
[1], 412.44 K | – | 66.66
[1], 418.34 K | – | 79.99
[1], 423.47 K | – | 93.32
[1], 426.1 K | – | 101.3
[2], 40 kPa | 123.76 | –
[2], 53.33 kPa | 132.34 | –
[2], 66.66 kPa | 139.29 | –
[2], 79.99 kPa | 145.19 | –
[2], 93.32 kPa | 150.32 | –
[2], 101.3 kPa | 153.0 | –
